Data: US20060129385A1, “Cholinergic therapy for individuals with learning disabilities” (priority 2002, published 2006)

Experiments:
[1] = tested on: individuals with Down's Syndrome
Experimental: Subjects: After obtaining IRB approval and written informed consent, 5 males and […] with DS (confirmed by karyotyping), between the ages of 20-41 years (mean age=29 years), were enrolled in the trial. All subjects were verbal, able to hear speech at conversational level, and able to ingest oral medication. […] All individuals were evaluated for thyroid disorders and for Vitamin B 12 deficiency within 6 months of entry into the trial. […] Subject IQs ranged from 40 to 60 (mean IQ=52). The IQs of four subjects were determined during the baseline visit because testing had not been performed in the last 10 years. The IQ's of the two youngest subjects were determined from school records.
Study Design: This was a 24 week open study at the General Clinical Outpatient Research Unit at Duke University in which subjects attended three sessions, Week 0 (Baseline), Week 12 (Treatment-12), and Week 24 (Termination). Due to scheduling limitations, the average first post-treatment visit was at Week 13 and the second post-treatment visit was at Week 25. A physical exam and language testing were completed at all sessions. A checklist for medication related adverse events was performed at Week 12 and at study termination. At the completion of the Baseline visit, donepezil was dosed orally at 5 mg once daily for 6 weeks. The dose was increased to 10 mg (two 5 mg tablets) daily for the remaining weeks if the 5 mg dose was well tolerated. This dosage schedule was based on experience from a previous trial [Kishnani et al 1999] and the donepezil package insert. Patients were monitored closely for safety and tolerability of the medication by regular phone calls in between scheduled visits. Two language measures were used, the Test of Problem Solving (TOPS) and the Clinical Evaluation of Language Fundamentals-Revised (CELF-R). The TOPS was completed at Baseline and at Weeks 12 and 24 of treatment. The CELF-R was completed at Baseline and at Week 24.

[2] = tested on: individuals with Down's Syndrome; assay: Test of Problem Solving (TOPS), 24 week open study of donepezil; assay type: in vivo, human
Experimental: (§1) In the current study, we specifically examined the effects of donepezil and tested the hypothesis that expressive language performance in individuals with Down's Syndrome would improve with donepezil treatment. Language performance was measured with two objective measures, the Test of Problem Solving [Zachman et al., 1984] and the Clinical Evaluation of Language Fundamentals-Revised [Semel et al., 1986].
Measures: The Test of Problem Solving [TOPS: Zachman et al., 1984]: The TOPS is an expressive language test that measures the ability to verbally identify reasonable solutions to problems presented via pictures. It has been used to assess pragmatic language ability in patients with AD. [Ripich et al., 1997]. The TOPS consists of 15 pictured scenarios with accompanying questions about each picture. The standard set of questions is designed to have the subject make inferences, to determine causes of particular events, to determine solutions to pictured problems, and to determine strategies for avoiding problems. The instrument was standardized on 1578 individuals (ages 6 years-0 months to 11 years-11 months). Age equivalent scores are provided for ages 3 years-5 months to 15 years-9 months. Validity and reliability data are available. TOPS raw scores for the overall [test as recommended by Powell, 1993] were determined by the average of two independent observers, one scoring onsite and a second scoring from audiotaped recordings of the test sessions.
(§2) Derivation of Language Level: Due to the absence of appropriate standardized measures for adults with DS, relative language level was determined by comparing subtest performance (raw scores) to the average performance level for five-year-olds. The five year-old level was selected because it is the lowest age level in which both tests provide normative data. For this study, TOPS performance was based on age equivalent scores.
(§3) Clinical Significance of Change: The clinical significance of the change in language performance following treatment was determined by comparing the difference in subject performance (between Baseline and treatment) to the amount of language improvement shown in one year by the average 5-year-old. For the TOPS, this index was the difference between the age equivalent score for children aged 5 years-0 months and the age equivalent score for children aged 6 years-0 months. For the CELF-R subtests, this index was difference between the mean raw scores for 5 year-olds and 6-year-olds.
Statistical Analyses: The main comparisons were changes from Baseline (week 0) assessed by repeated measures. […] Similarly, while we hypothesized an improvement in expressive language, the acceptable p-value was not adjusted to reflect a one-tailed analysis. P-values at or below 0.05 were viewed as significant. Changes on standardized measures were viewed as clinically significant if the magnitude of the observed change was substantial in comparison to the level of performance gain typically achieved by children in the 12 month period between age 5 and age 6. Across all measures, the performance gain between age 5 and age 6 is the highest rate of language gain recorded for any 12-month period.

[3] = tested on: DS patients; conditions: human, in vivo; cited from earlier work
[4] = tested on: individuals with Down's Syndrome; assay: Clinical Evaluation of Language Fundamentals-Revised (CELF-R), 24 week open study of donepezil; assay type: in vivo, human
Experimental: as §1
The Clinical Evaluation of Language Fundamentals-Revised (CELF-R: Semel et al., 1986]: The CELF-R is a diagnostic language test designed to assess language form and content, aspects of language generally regarded as fundamental to effective, oral—communication. Standardized expressive, receptive and overall language scores are derived from the summation of individual subtest scores. Typically, overall expressive and receptive language are evaluated by collapsing the subtest performance into a single receptive: or expressive language score. Individual subtest performance is analyzed for specific impairment within the broader expressive and receptive language domains. The instrument was standardized on 2,333 individuals (ages 5-0 to 16-11). Validity and reliability norms are available and adequate for each subtest.
as §2, §3
Statistical Analyses: The main comparisons were changes from Baseline (week 0) assessed by repeated measures. […] Similarly, while we hypothesized an improvement in expressive language, the acceptable p-value was not adjusted to reflect a one-tailed analysis. P-values at or below 0.05 were viewed as significant. […] Across all measures, the performance gain between age 5 and age 6 is the highest rate of language gain recorded for any 12-month period.

For `COc1cc2c(cc1OC)C(=O)C(CC1CCN(Cc3ccccc3)CC1)C2` (stereo not shown) [donepezil], which “subjects with mild cases of diarrhea” value ([1]; at the 5 mg dosage, each case improved spontaneously) is on record?
The value was “Five of six subjects”.

What about the “subjects reporting a transient decrease in appetite” value ([1]; on the 10 mg dosage, six subjects) of the same compound?
Its value is “one subject”.

And the “subjects reporting cramps for one day” value ([1]; six subjects)?
The value was “One subject”.

And the “change in TOPS performance, Treatment-12 weeks vs. Termination” value ([2]; after 12 additional weeks of treatment (24 weeks), paired samples t=0.52, p=0.6313)?
The value was “No change”.

What about the “overall TOPS performance gain” value ([2]; after 12 weeks of treatment vs Baseline, oral 5 mg once daily for 6 weeks, then 10 mg daily, adults with DS, paired t=4.5, p=0.0107) of the same compound?
Its value is 6.5.

What about the “overall TOPS performance gain” value ([2]; after 24 weeks of treatment (Termination) vs Baseline, oral 5 mg then 10 mg daily, paired t=1.10, p=0.0513) of the same compound?
Its value is 5.1.

What about the “clinical significance: overall TOPS performance gain relative to gain expected by the average five-year-old in one year of development” value ([2]; after treatment) of the same compound?
The value was “more than one-half”.

What about the “performance on the TOPS, Baseline vs. Treatment-12 weeks” value ([2]; following 12 weeks of treatment, paired samples t=4.5, p=0.0107) of the same compound?
Its value is “significantly improved performance”.

And the “adverse effect reported in DS patients” value [3]?
Its value is “urinary incontinence”.

And the “CELF-R subtests showing gains” value ([4]; following 24 weeks of donepezil treatment, n=5)?
Its value is 5 of 6.

And the “significance of CELF-R subtest differences from baseline levels” value ([4]; following 24 weeks of treatment, p=0.15-0.23 in three expressive subtests and Word Classes)?
The value was “None of the differences was significantly different”.

And the “gain in language performance on the CELF-R subtests, High Language Group” value ([4]; individuals with higher language skills at Baseline, n=2, following treatment)?
Its value is “large gains”.

And the “gain on the CELF-R language measures, Low Language Group” value ([4]; individuals with lower language skills at Baseline, n=3, following treatment)?
The value was “little gain”.
